Test results published in patent US20100310563A1, “METHODS FOR TREATING INDUCED CELLULAR PROLIFERATIVE DISORDERS” (priority 2007, published 2010).

Tested on: phosphorylated JAK2 in GFP positive peripheral blood granulocytes of the JAK2V617F mouse
Assay: FACS analysis of intracellular JAK2 phosphorylation in peripheral blood granulocytes
Assay type: cell-based
Conditions: with IL-3 and G-CSF stimulation for 60 minutes, GFP-positive granulocytes of a JAK2V617F mouse, FIG. 4B bottom
Procedure: White cells from bone marrow and spleen were resuspended in staining buffer (BD Biosciences). Aliquots of 1×10^6 cells were stained for 20 minutes with conjugated monoclonal antibodies. Cells were washed in staining buffer and analyzed by FACS. For FACS analysis of intracellular JAK2 phosphorylation, peripheral blood of one JAK2V617F mouse and three normal BALB/c mice were collected. WBC from normal BALB/c mice were pooled together. Cells were split into three aliquots and resuspended in RPMI 1640 (Life Technologies) containing 0.5% BSA and incubated for 15 hours. Following incubation, one aliquot was stimulated with 10 ng/mL IL-3 plus 10 ng/mL granulocyte colonystimulating factor (G-CSF; StemCell) and second aliquot was stimulated with 10 ng/mL IL3, 10 ng/mL G-CSF, and 10 Amol/L AG-490 (Calbiochem) for 60 minutes and third aliquot was left unstimulated. Cells ([…]) were resuspended in 50 AL staining buffer (1% BSA and 0.1% sodium azide in PBS) and permeabilized using Fix&Perm cell permeabilization kit (Caltag Laboratories, Burlingame, Calif. and An der Grub, Vienna, Austria). The granulocyte population was selected by forward and side scatter
To test if the mutant JAK2V617F kinase in murine leukocytes is constitutively active, peripheral blood granulocytes was analyzed by FACS for phosphorylated JAK2. […]

In the case of `N#C/C(=C/c1ccc(O)c(O)c1)C(=O)NCc1ccccc1` [AG490], the “phosphorylated JAK2 levels” value is reported as “reduced phosphorylated JAK2 levels below baseline”.
